Broadly, the EC50 is the midpoint of the concentration-response curve.

From publication PMC2801615, “Sex Pheromone Receptor Specificity in the European Corn Borer Moth, Ostrinia nubilalis” (PLoS ONE, 2010) come the findings set out here.

SMILES strings stand for the structures.

The first experiment deals with T1, OnOr6/2 (Ostrinia nubilalis, UniProt D3J5H9).
T1 construct: gene OR6; full-length ORF (421-425 residues for the set) in pGEMHE; cRNA co-injected with OnOr2 in Xenopus oocytes; dimer with Or83b ortholog; with Odorant receptor coreceptor
T1 sequence (D3J5H9 1-421): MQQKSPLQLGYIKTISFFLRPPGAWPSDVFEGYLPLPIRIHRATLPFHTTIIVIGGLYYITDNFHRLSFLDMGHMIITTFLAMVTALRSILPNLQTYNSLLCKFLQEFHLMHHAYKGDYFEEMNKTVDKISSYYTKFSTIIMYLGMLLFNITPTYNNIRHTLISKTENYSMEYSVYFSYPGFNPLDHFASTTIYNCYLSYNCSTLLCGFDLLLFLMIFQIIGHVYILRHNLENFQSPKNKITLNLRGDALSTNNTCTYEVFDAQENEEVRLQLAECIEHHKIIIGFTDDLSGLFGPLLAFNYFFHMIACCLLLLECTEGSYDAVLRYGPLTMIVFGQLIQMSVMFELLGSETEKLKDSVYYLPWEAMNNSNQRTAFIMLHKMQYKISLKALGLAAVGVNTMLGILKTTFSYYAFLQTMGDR
T1 sequence (D3J5H5 1-473 partner): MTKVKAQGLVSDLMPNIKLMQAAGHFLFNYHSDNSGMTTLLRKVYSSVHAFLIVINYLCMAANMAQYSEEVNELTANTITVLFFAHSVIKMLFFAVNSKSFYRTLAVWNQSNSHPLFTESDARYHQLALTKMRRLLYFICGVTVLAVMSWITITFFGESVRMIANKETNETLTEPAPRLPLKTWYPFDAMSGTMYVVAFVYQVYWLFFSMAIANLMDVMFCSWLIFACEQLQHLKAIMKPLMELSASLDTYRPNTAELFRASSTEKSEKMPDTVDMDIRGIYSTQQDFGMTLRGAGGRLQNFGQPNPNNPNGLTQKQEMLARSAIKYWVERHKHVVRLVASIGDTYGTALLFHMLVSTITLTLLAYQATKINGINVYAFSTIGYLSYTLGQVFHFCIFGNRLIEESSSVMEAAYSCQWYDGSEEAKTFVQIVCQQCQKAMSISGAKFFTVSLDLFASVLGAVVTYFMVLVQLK
The experiment can be described thus: two-electrode voltage clamp, Xenopus oocytes. Format: cell-based. Particulars: read-out: EC50 (μM ± SEM). An excerpt:
two-electrode voltage clamp, Xenopus oocytes on OnOr6/2
On the technique in general: Two-electrode voltage clamp holds a large cell at a set potential and records current.
For `CC/C=C\CCCCCCCCCCOC(C)=O` [Z11, Z11–14:OAc], the EC50 amounted to 0.86 ± 0.27 µM.

The target of a further experiment is T2, OnOr1/2 (Ostrinia nubilalis, UniProt D3J5H4).
T2 construct: gene OR1; full-length ORF (421-425 residues for the set) in pGEMHE; cRNA co-injected with OnOr2 in Xenopus oocytes; dimer with Or83b ortholog; with Odorant receptor coreceptor
T2 sequence (D3J5H4 1-424): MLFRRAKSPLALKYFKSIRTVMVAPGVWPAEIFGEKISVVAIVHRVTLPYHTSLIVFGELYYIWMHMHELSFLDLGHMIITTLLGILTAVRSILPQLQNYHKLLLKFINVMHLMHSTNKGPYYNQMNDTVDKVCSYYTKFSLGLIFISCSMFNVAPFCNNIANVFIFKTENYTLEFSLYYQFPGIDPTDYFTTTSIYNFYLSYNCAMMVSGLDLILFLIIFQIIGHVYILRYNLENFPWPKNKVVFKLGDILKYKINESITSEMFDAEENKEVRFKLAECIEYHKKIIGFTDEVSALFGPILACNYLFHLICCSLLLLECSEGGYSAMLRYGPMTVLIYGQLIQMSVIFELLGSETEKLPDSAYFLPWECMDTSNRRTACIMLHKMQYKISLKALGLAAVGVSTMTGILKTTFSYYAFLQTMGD
T2 sequence (D3J5H5 1-473 partner): T1 sequence (D3J5H5 1-473 partner)
In words: two-electrode voltage clamp, Xenopus oocytes. It counts as cell-based. Particulars: read-out: EC50 (μM ± SEM). The source says: two-electrode voltage clamp, Xenopus oocytes on OnOr1/2
As for `CC/C=C/CCCCCCCCCCOC(C)=O` [E11, E11–14:OAc], the 50% effective concentration (EC50) turned out to be 1.92 ± 0.2 µM. Same read-out and setting: for `C/C=C/CCCCCCCCCCCOC(C)=O` [E12, E12–14:OAc] the value was 0.26 ± 0.05 µM; for `CCCC/C=C\CCCCCCCCOC(C)=O` [Z9, Z9–14:OAc], 1.54 ± 0.33 µM; for `CC/C=C\CCCCCCCCCCOC(C)=O` [Z11, Z11–14:OAc], 0.34 ± 0.05 µM. Still for that read-out and setting: for `C/C=C\CCCCCCCCCCCOC(C)=O` [Z12, Z12–14:OAc] the value was 2.73 ± 0.24 µM.
